Measured values: patent US12486303B2, “Use of peptide for inhibiting functions and expressions of multiple disease biomarkers” (NIBEC CO., LTD., priority 2018, dated 2025)

How the values were obtained:
HDAC5 = test: Phospho explorer antibody microarray of LPS-treated RAW 264.7 cells: HDAC5; assay type: cell-based; settings: 200 μM peptide 1 hour then LPS 1 μg/mL 30 minutes, compared to cells treated with only LPS
Experimental: (§1) RAW 264.7 cells were starved in 0.5% FBS for 2 hours and treated with 200 μM of the peptide of SEQ ID NO: 1 for 1 hour, and then inflammation was induced at 37° C. for 30 minutes with LPS (1 μg/mL). Cell lysates of untreated cells (NT), cells treated with LPS, and cells treated with SEQ ID NO: 1 and LPS were applied to a Phospho explorer antibody microarray from Full Moon Biosystems. The phospho microarray is capable of recognizing 1318 antibodies related to 30 signaling systems. A standard-size coated glass microscope slide was coated with each antibody. =It was scanned with a GenePix 4100A scanner (Axon Instrument, Foster City, CA, USA). Data were analyzed with Genowiz 4.0™ (Ocimum Biosolutions, Hyderabad, India). The phosphorylation ratio was calculated as follows.
(§2) Formula for calculating phosphorylation ratio in each antibody: Phosphorylation ratio=(phosphorylation value of experimental group/non-phosphorylation value of experimental group)/(phosphorylation value of control group/non-phosphorylation value of control group)

NF-κB p100/p52 = test: Phospho explorer antibody microarray of LPS-treated RAW 264.7 cells: NF-κB p100/p52; assay type: cell-based; settings: 200 μM peptide 1 hour then LPS 1 μg/mL 30 minutes, compared to cells treated with only LPS
Experimental: as §1, §2

[1] = test system: collagen-induced arthritis (CIA) rats; test: Collagen-induced arthritis animal model; assay type: in vivo, Wistar rats; settings: for Hind paw swelling inhibition (%): 38th day
Text: In order to determine whether or not the peptide according to the present invention is effective in treating rheumatoid arthritis in vivo, the effect of treating arthritis thereof was detected in a collagen-induced arthritis animal model. For this purpose, female Wistar rats (105-135 g, n=67) were purchased from Harlan Co. Ltd. (Indianapolis, IN, USA). All rats were bred in a pathogen-free environment and sterilized standard rat feed (Harlan Co. Ltd, USA) and water were freely fed to the rats. Animal experiments were conducted with the approval of the Institutional Animal Care and Use Committee (IACUC) of Seoul National University. Collagen-induced arthritis was induced in a known manner (Nishikawa et al., Arthritis and rheumatism. 2003; 48:2670-81).
Specifically, 500 μg of bovine collagen type II was injected along with a mixture of 0.5 mL of 0.1 M acetic acid and 0.5 mL of Freund's incomplete adjuvant into rat muscle. On the 7th day, 0.5 mL of 0.1 M acetic acid and 0.5 mL of Freund's incomplete adjuvant were further inoculated along with 250 μg of bovine collagen type II to produce collagen-induced arthritis (CIA) rats. The rats were classified into a CIA-induced group (n=10), a CIA-induced group injected with a low concentration of the peptide of SEQ ID NO: 1 (LD AIP, 15 mg/kg, n=10), a CIA-induced group injected with a high concentration of the peptide of SEQ ID NO: 1 (HD AIP, 30 mg/kg, n=10), a CIA-induced group injected with etanercept (Enbrel) (10 mg/kg, n=10), and a normal group (n=6). From 28 days after the first collagen injection, the peptide of SEQ ID NO: 1 was injected subcutaneously into the back of the neck twice a week over 4 weeks. Etanercept was injected intraperitoneally three times a week over 4 weeks. Swelling of both hind paws was measured twice using a plethysmometer (LE7500 N, IWOO Scientific Corporation, KOREA) on day 22, 29, 31, 35, 38, 42, 45, 49, 52, and 56. The plethysmometer was used after calibration to a weight of 3 mL. The measured area was marked by drawing a line, and measurement was conducted adjacent to the ankle. Hind paw swelling increase (%) and hind paw swelling inhibition (%) were calculated using the following equations.
In order to observe the degree of bone damage in the hind paw, microcomputed tomography (micro-CT) was performed using a SkyScan 1172 (SkyScan, Aartselaar, Belgium). The total volume (TV; mm^3), bone volume (BV; mm^3) and bone volume fraction (BV/TV; %) were analyzed using CTAn software. On the 57th day, rats were sacrificed and subjected to histological analysis. Both hind paws and joints were collected, fixed in 10% buffered formalin, and demineralized in 30% citrate-buffered formic acid at 4° ° C. for 3 days. Paraffin blocks were produced, sliced into sections with a thickness of 4 μm and stained with hematoxylin and eosin (H&E), and then the pathological score was evaluated with an optical microscope. The joint inflammation index was measured based on the following criteria (Shiozawa et al., J Clin Invest. 1997; 99 (6):1210-1216). 0, normal synovium; 1, synovial membrane hypertrophy and cell infiltrates; 2, pannus and cartilage erosion; 3, major erosion of cartilage and subchondral bone; and 4, loss of joint integrity and ankylosis.
The rats were sacrificed and systemic blood was collected, and the concentrations of TNF-α and IL-6 in the blood were measured with an ELISA kit (R&D, Minneapolis, MN, USA).

[2] = test system: TNBS-induced colitis rats; test: TNBS colitis-induced animal model; assay type: in vivo
Experimental: In order to determine whether or not the peptide according to the present invention has the effect of treating inflammatory colitis in vivo, the effect of treating colitis in a colitis-induced animal model was detected. Before induction of colitis, rats were allowed to drink water freely, although food was not supplied thereto for 24 hours. The rats were lightly anesthetized with ether. A rubber cannula (o.d., 2 mm) was inserted into the colon, the end of which was about 8 cm away from the anus and was located near the splenic flexure. 2,4,6-trinitro benzene sulfonic acid (TNBS; Sigma Chemical Co, St Louis, Missouri, USA) dissolved in a 50% (v/v) ethanolic aqueous solution was injected into the colon through the rubber cannula (15 mg/0.3 mL/rat). 72 hours after induction of colitis, the peptide of SEQ ID NO: 1 (30 mg/kg) was intraperitoneally injected once a day, and after administration for 7 days, the rats were sacrificed. The weight of the rats was measured at 9 AM every day, and the length of the colon was measured from the cecum to the anus using a vernier caliper (Mitutoyo, Japan) after rat sacrifice.
The extracted large intestine was frozen and stored at −70° ° C., the mucous membrane tissue was collected from the muscle layer of the large intestine, the weight of the mucous membrane tissue was measured, and 10 mg of the mucous membrane tissue was lysed in a triple wash buffer (50 mM Tris-HCl, pH 8.0, 150 mM NaCl, 0.1% sodium deoxycholate and 1 mM phenylmethysulfonyl and homogenized. Then, p40, TNF-α, and IL-12 were assayed using an ELISA kit (R&D, Minneapolis, MN, USA).

C[C@@H](O)[C@H](NC(=O)[C@H](CO)NC(=O)[C@H](CS)NC(=O)[C@H](CCCCN)NC(=O)CN)C(=O)N[C@@H](CCCNC(=N)N)C(=O)NCC(=O)N[C@@H](CCCNC(=N)N)C(=O)N[C@@H](CCCCN)C(=O)N[C@@H](CS)C(=O)N[C@@H](CS)C(=O)N[C@@H](CCCNC(=N)N)C(=O)N[C@@H](CCCNC(=N)N)C(=O)N[C@@H](CCCCN)C(=O)N[C@@H](CCCCN)C(=O)O [SEQ ID NO: 1]
Phosphorylation ratio of HDAC5 (HDAC5): 0.278
Phosphorylation ratio of NF-κB p100/p52 (NF-κB p100/p52): 0.451
Concentration of IL-6 in blood ([1]; ELISA, high concentration of peptide or etanercept, CIA-induced group 109 pg/ml): 35.2 pg/mL
Concentration of TNF-α in blood ([1]; ELISA, high concentration of peptide or etanercept, CIA-induced group 128 pg/ml): 40.3 pg/mL
Bone damage in hind paw (micro-CT) ([1]; FIG. 3A): bone tissue was preserved
Microscopic observation of joint tissues (inflammation, H&E) ([1]; FIG. 4A): decrease in inflammation in a concentration-dependent manner
Hind paw swelling inhibition (%) ([1]; high concentration (30 mg/kg)): 35%
Bone surface area adjusted to BV (BS/BV) ([1]; high concentration, micro-CT): low
Bone volume (BV) ([1]; high concentration, micro-CT): high
Bone volume/tissue volume (BV/TV) ([1]; high concentration, micro-CT): high
Trabecular thickness (Tb.Th) ([1]; high concentration, micro-CT): high
Hind paw swelling inhibition (%) ([1]; low concentration (15 mg/kg)): 32%
Hind paw swelling (%) ([1]; peptide 15 or 30 mg/kg subcutaneously twice a week, etanercept 10 mg/kg intraperitoneally three times a week, 4 weeks): decrease in hind paw swelling (%) in a concentration-dependent manner
Hind paw swelling (%) ([1]; peptide at high concentration (30 mg/kg)): decrease in hind paw swelling (%) between 38 and 49 days (P<0.05)
Inflammation index ([1]; score 0-4, CIA-induced group 3.3±0.67): 1.5±1.17
Expression of IL-12 in large intestine mucous membrane tissue (ELISA) ([2]; 30 mg/kg intraperitoneally): decreased
Expression of TNF-α in large intestine mucous membrane tissue (ELISA) ([2]; 30 mg/kg intraperitoneally): decreased
Expression of p40 in large intestine mucous membrane tissue (ELISA) ([2]; 30 mg/kg intraperitoneally): decreased
Visual observation of large intestine ([2]; 30 mg/kg intraperitoneally once a day, 7 days, 8th day): appeared similar to the normal group (CON), indicating that colitis was remarkably suppressed
